Measurements from patent US9517993B2, “Antagonists of the toll-like receptor 1/2 complex” (THE REGENTS OF THE UNIVERSITY OF COLORADO, a body corporate, priority 2012, dated 2016).

Columns and labels:
TLR1/2 = target: T1, TLR1/2 (Mus musculus, UniProt Q9EPQ1+Q9QUN7); assay: In vitro TLR1/2 inhibition assay (nitric oxide, Pam3CSK4-activated RAW 264.7 macrophages); format: cell-based; conditions: for TLR1/2 inhibitory activity (in words, SAR and specificity): RAW 264.7 NO assay, Pam3CSK4; for IC50: RAW 264.7 cells, Pam3CSK4 200 ng/mL, nitric oxide readout, read-out: IC50, inhibition of Pam3CSK4-induced TLR1/2 activation (NO assay)
T1 construct: production of NO in RAW 264.7 macrophage cells; endogenous in cells; host or cells: RAW 264.7
Description: To identify novel TLR1/2 complex inhibitors, a cell-based assay was employed to screen the NCI-2 diversity small-molecule library. This 1,363 compound library was chosen from the larger NCI library, which has more than 140,000 compounds, on the basis of availability, purity, and other pharmacological features, such as relative rigidity, number of rotatable bonds and chiral centers, the absence of obvious leaving groups and weakly bounded heteroatoms, etc. Screening was performed in a 96-well plate format using a previously established high-throughput nitric oxide (NO) assay. See e.g. Cheng et al., Small molecule inhibitors of the TLR3/dsRNA complex, J. Am. Chem. Soc. (2011), 133:3764-67, which is herein incorporated by reference in its entirety. Briefly, synthetic triacylated lipoprotein Pam3CSK4 was employed to selectively activate TLR1/2 signaling, resulting in the expression of inducible nitric oxide synthase (iNOS) and the production of NO in RAW 264.7 macrophage cells. NO levels were monitored as an indicator of Pam3CSK4-induced TLR1/2 activation to evaluate the compound's inhibitory activity.
(§1) RAW 264.7 (Mouse leukaemic monocyte macrophage cell line) cells were grown in RPMI 1640 medium, supplemented with 10% FBS, penicillin (100 U/mL) and streptomycin ([…]). RAW cells were then planted in 96-well plates at 80,000 cells per well and grown for 24 h in the media descried previously at 37° C. in a 5% CO2 humidified incubator. After 24 h, non-adherent cells and media were removed and replaced with fresh unsupplemented RPMI 1640 medium. The adherent macrophages were treated with Pam3CSK4 (CAS No. 112208-00-1; a synthetic triacylated lipopeptide (LP) that mimics the acylated amino terminus of bacterial LPs) (200 ng/mL) (Invivogen, USA), an agonist of TLR1/2, and then added different concentrates of potential inhibitor. Two rows were only treated with Pam3CSK4 as control. Plates were then incubated for an additional 24 h. Following incubation 100 μL of media was removed and added to flat black 96-well microfluor plates (Thermo Scientific, MA, USA). To each well, 10 μL of 2,3-diaminonaphthalene (0.05 mg/mL in 0.62 M aqueous HCl solution) was added and incubated for 15 min in the dark. The reaction was quenched by addition of 5 μL of a 3 M aqueous NaOH solution and the plate was read on Beckman Coulter DTX880 reader (Beckman Coulter, Calif., USA) with excitation at 365 nm and emission at 450 nm. The nitrite (a stable metabolite of nitric oxide) concentration was determined from a nitrite standard curve. The inhibition rate (%) of NO release was determined using the following formula: Inhibition (%)=[Pam3CSK4(OD450) […]]/[Pam3CSK4 (OD450)−Control (OD450)]×100. The IC50 values for both inhibition and cytotoxicity were determined graphically using software Origin v7.5.

TLR4 = target: T2, TLR4 (Mus musculus, UniProt Q9JHF9+Q9QUK6); assay: RAW 264.7 nitric oxide TLR selectivity assay (LPS); format: cell-based; conditions: 10 ng/mL LPS
T2 construct: RAW 264.7 Cells Nitric Oxide TLR Selectivity Assay; endogenous in cells; host or cells: RAW 264.7
T2 sequence (Q9QUK6 26-835): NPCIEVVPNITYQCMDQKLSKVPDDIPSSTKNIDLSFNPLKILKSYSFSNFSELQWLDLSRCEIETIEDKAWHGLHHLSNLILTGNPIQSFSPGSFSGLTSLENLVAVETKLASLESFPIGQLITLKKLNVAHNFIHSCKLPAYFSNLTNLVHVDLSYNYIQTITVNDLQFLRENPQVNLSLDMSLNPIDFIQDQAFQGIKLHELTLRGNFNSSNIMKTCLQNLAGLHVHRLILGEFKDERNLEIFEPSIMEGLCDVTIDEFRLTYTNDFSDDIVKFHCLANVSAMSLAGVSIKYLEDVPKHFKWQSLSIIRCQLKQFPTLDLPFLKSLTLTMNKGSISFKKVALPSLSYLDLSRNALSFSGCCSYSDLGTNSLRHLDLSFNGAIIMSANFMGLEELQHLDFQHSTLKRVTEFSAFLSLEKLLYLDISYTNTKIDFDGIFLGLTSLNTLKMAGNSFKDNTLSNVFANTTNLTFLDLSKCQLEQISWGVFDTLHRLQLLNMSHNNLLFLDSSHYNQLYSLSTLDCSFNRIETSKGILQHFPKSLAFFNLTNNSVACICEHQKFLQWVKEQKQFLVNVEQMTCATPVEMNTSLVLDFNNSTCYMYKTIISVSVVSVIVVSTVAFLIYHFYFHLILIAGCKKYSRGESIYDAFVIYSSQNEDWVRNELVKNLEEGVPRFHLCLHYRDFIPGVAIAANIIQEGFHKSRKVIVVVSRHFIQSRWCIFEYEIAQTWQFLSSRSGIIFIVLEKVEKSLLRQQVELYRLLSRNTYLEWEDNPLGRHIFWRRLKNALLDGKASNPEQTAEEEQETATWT
T2 sequence (Q9JHF9 19-160): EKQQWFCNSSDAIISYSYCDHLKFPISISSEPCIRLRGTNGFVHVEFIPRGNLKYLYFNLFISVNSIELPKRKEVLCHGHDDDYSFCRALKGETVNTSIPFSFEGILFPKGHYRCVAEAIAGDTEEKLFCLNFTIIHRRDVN
Description: as §1, with “Plates were then incubated for an additional 24 h. Following incubation 100 μL of media was removed and added to flat black 96-well microfluor plates (Thermo Scientific, MA, USA). To each well, 10 μL of 2,3-diaminonaphthalene (0.05 mg/mL in 0.62 M aqueous HCl solution) was added and incubated for 15 min in the dark.” left out, “v7.5. […]” for “v7.5.”

T1 sequence (Q9EPQ1 26-795): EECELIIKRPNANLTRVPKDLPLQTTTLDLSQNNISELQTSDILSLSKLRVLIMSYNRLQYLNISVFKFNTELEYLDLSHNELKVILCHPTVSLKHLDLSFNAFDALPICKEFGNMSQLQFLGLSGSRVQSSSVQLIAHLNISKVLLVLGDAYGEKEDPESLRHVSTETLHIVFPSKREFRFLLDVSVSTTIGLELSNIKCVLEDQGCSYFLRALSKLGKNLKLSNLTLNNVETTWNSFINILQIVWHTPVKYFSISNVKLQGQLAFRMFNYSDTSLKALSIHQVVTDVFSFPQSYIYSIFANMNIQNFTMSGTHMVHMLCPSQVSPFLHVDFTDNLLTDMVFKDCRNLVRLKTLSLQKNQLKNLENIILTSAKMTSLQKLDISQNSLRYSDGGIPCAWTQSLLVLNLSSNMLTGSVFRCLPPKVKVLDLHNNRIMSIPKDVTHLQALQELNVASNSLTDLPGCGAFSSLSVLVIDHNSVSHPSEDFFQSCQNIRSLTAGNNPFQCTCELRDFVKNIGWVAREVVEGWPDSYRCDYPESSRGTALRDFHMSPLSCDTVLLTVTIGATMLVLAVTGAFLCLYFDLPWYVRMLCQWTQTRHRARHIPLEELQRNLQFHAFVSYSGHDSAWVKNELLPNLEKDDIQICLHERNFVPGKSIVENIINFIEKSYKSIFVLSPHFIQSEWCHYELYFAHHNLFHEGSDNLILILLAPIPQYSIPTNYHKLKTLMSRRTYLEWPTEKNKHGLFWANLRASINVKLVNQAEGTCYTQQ
T1 sequence (Q9QUN7 25-784): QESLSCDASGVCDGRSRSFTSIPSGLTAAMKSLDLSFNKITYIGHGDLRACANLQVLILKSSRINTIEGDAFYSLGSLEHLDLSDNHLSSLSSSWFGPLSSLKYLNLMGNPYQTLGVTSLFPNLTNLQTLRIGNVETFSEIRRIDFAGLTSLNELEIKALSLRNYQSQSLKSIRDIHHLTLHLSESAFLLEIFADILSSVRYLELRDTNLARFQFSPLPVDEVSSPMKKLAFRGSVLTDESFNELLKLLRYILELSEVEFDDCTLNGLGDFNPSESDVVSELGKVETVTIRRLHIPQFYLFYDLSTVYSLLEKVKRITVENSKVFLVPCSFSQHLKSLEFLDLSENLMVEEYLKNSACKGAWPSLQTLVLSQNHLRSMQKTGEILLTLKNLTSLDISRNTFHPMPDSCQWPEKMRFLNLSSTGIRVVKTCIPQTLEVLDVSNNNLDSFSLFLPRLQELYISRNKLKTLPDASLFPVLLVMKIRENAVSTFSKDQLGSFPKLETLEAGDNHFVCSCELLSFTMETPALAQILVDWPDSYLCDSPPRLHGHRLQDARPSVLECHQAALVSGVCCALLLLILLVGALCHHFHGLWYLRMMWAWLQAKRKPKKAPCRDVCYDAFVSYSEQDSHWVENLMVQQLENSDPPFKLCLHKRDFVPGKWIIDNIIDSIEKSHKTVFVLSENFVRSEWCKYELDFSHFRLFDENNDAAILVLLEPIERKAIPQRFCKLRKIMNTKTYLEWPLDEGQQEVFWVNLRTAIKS

TLR1/2 inhibitory activity (in words, SAR and specificity) (TLR1/2)	IC50 (TLR1/2) [nM]	inhibition of TLR4 signaling (TLR4; 3 μM compound)	TLR1/2 inhibitory activity (in words, SAR and specificity) (TLR1/2; listed as Compound 17)	inhibition of TLR4 signaling (TLR4; 0.5 μM compound)	SMILES
specifically inhibited TLR1/2 signaling	2450 ± 250	no other homologous TLRs			O=c1c(O)cccc2cc(O)c(O)c(O)c12 [NCI35676, purpurogallin, reference compound]
highest inhibitory activity	580 ± 90		inhibit TLR1/2 signaling	without affecting other TLRs	CCCCCCOC(=O)c1cc(O)c(=O)c2c(O)c(O)c(OC)cc2c1 [compound 17, Hexyl 3,4,6-trihydroxy-2-methoxy-5-oxo-5H-benzo[7]annulene-8-carboxylate]
